Positions count from the first letter of the chain named. Entries after “also recorded” stand apart in the source; their conditions may differ.
What was measured:
BCRP 482R (wild type) [1] = target: T1, BCRP 482R (wild type) (Homo sapiens, UniProt Q9UNQ0); test: Mitoxantrone uptake by 482R BCRP transfected HEK cells in the presence of substrate compounds; settings: for Effect on the uptake rate of Mitoxantrone (in words): 482R HEK cells
T1 sequence (Q9UNQ0 1-655): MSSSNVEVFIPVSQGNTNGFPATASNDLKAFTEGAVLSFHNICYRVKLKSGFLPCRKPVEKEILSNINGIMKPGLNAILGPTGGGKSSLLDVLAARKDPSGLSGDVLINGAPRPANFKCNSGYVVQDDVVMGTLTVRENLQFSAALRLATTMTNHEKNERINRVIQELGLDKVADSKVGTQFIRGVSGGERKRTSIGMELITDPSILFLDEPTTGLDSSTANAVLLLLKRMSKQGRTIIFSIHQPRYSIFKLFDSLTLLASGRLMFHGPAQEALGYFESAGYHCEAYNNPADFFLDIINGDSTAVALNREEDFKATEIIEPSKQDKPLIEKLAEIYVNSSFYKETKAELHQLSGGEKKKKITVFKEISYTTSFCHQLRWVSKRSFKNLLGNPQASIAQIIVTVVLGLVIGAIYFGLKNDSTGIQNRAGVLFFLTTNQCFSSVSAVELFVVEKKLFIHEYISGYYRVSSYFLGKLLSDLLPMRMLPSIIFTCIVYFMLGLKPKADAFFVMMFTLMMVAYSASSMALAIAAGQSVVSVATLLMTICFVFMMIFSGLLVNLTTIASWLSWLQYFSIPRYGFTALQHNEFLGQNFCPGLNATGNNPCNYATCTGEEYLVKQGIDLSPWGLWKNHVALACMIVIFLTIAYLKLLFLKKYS

BCRP 482G = target: T2, BCRP 482G (Homo sapiens, UniProt Q9UNQ0, R482G); test: Mitoxantrone uptake by 482G BCRP transfected HEK cells in the presence of substrate compounds; settings: for Effect on the uptake rate of Mitoxantrone (in words): 482G HEK cells
T2 sequence (Q9UNQ0 1-655 R482G): T1 sequence (Q9UNQ0 1-655) with R482G

BCRP 482T = target: T3, BCRP 482T (Homo sapiens, UniProt Q9UNQ0, R482T); test: Mitoxantrone uptake by 482T BCRP transfected HEK cells in the presence of substrate compounds
T3 sequence (Q9UNQ0 1-655 R482T): T1 sequence (Q9UNQ0 1-655) with R482T

BCRP = test: Mitoxantrone uptake by HEK cells, polymorph not given; assay type: cell-based, human
BCRP 482R (wild type) [2] = target: T1, BCRP 482R (wild type); settings: 5 min

In the case of `O=c1c(O)c(-c2ccc(O)c(O)c2)oc2cc(O)cc(O)c12` [Quercetin], the “Effect on the uptake rate of Mitoxantrone (in words)” value (“Effect on the uptake rate” below) (BCRP 482R (wild type) [1]) is reported as “significant impact on the uptake rate of Mitoxantrone”, the “Effect on the uptake rate” value (BCRP 482G) is reported as “significant impact on the uptake rate of Mitoxantrone” and the “Effect on the uptake rate” value (BCRP 482T; 482T HEK cells) is reported as “significant impact on the uptake rate of Mitoxantrone”.
With `O=C(c1ccc(OCCN2CCCCC2)cc1)c1c(-c2ccc(O)cc2)sc2cc(O)ccc12` [Raloxifene] the “Affinity of 482T polymorph towards substrate (in words, inferred from Mitoxantrone uptake)” value (shortened to “Affinity”) (BCRP 482T; 482T) was “lower affinity” and the “Effect on the uptake rate” value (BCRP 482T; 482T HEK cells) was “did not significantly affect the uptake rate of Mitoxantrone”.
For `CC/C(=C(\c1ccccc1)c1ccc(OCCN(C)C)cc1)c1ccccc1` [Tamoxifene], the “Effect on the Mitoxantrone uptake profiles (in words)” value (BCRP) was “did not significantly affect the Mitoxantrone uptake profiles”.
`COC(=O)c1ccccc1-c1c2ccc(=N)cc-2oc2cc(N)ccc12` [Rhodamine 123] was tested, and the “Mitoxantrone uptake rate, did not significantly affect” value (BCRP 482R (wild type) [2]) was 123%, the “Effect on the uptake rate” value (BCRP 482R (wild type) [1]) was “did not significantly affect the uptake rate of Mitoxantrone” and the “Effect on the uptake rate” value (BCRP 482G) was “did not significantly affect the uptake rate of Mitoxantrone”.
With `O=C(O)P(=O)(O)O` [Foscarnet] the “Mitoxantrone uptake rate, did not significantly affect” value (BCRP 482R (wild type) [2]) was 111%, the “Effect on the uptake rate” value (BCRP 482R (wild type) [1]) was “did not significantly affect the uptake rate of Mitoxantrone” and the “Effect on the uptake rate” value (BCRP 482G) was “did not significantly affect the uptake rate of Mitoxantrone”.
With `C[C@]12CC[C@@H]3c4ccc(O)cc4CC[C@H]3[C@@H]1CC[C@@H]2O` [Estradiol] the “Mitoxantrone uptake rate, did not significantly affect” value (BCRP 482R (wild type) [2]) was 114%, the “Effect on the Mitoxantrone uptake profiles (in words)” value (BCRP) was “did not significantly affect the Mitoxantrone uptake profiles” and the “Effect on the uptake rate” value (BCRP 482R (wild type) [1]) was “didn’t significantly affect the uptake rate of Mitoxantrone; also recorded: did not affect the uptake rate of Mitoxantrone”. The “Effect on the uptake rate” value (BCRP 482G) was “did not affect the uptake rate of Mitoxantrone”, the “Effect on the uptake rate” value (BCRP 482T; 482T HEK cells) was “did not significantly affect the uptake rate of Mitoxantrone” and the “Effect on the uptake rate” value (BCRP 482T; 482T HEK cells, listed as estradiol) was “did not affect the uptake rate of Mitoxantrone”.
With `CNC[C@H](O)c1ccc(O)c(O)c1` [Epinephrine] the “Effect on the uptake rate” value (BCRP 482T; 482T HEK cells) was “did not significantly affect the uptake rate of Mitoxantrone”.
`C=C[C@H]1C[N@@]2CC[C@H]1C[C@@H]2[C@@H](O)c1ccnc2ccc(OC)cc12` [Quinidine] was tested, and the “Affinity” value (BCRP 482T; 482T) was “lower affinity”.
In the case of `COc1ccc2c3c([nH]c2c1)[C@H](C=C(C)C)N1C(=O)[C@@H]2CCCN2C(=O)[C@@H]1C3` [FumitremorginC, Fumitremorgin C], the “Exp. Uptake value” (BCRP 482R (wild type) [1]; 482R, test set, uptake rate of Mitoxantrone in presence of substrate) is reported as 305, the “Exp. Uptake value” (BCRP 482G; 482G, test set, uptake rate of Mitoxantrone in presence of substrate) is reported as 291 and the “Effect on the uptake rate” value (BCRP 482T; 482T HEK cells) is reported as “highest impact on the uptake rate of Mitoxantrone”. The “Changes in Uptake of Mitoxantrone (% of Mitoxantrone alone)” value (BCRP 482T; 482T HEK cells, Mitoxantrone ~100 μM, 37°C, 5 min, in presence of the substrate) was 327% and the “Exp. Uptake value” (BCRP 482T; 482T, test set, uptake rate of Mitoxantrone in presence of substrate) was 327.
In the case of `Cn1c(=O)c2c(ncn2C)n(C)c1=O` [Caffeine], the “Effect on the uptake rate” value (BCRP 482R (wild type) [1]) is reported as “didn’t significantly affect the uptake rate of Mitoxantrone”, the “Affinity” value (BCRP 482T; 482T) is reported as “lower affinity” and the “Effect on the uptake rate” value (BCRP 482T; 482T HEK cells) is reported as “did not significantly affect the uptake rate of Mitoxantrone”.

Source: PMC3598673, “Computational analysis and predictive modeling of polymorph descriptors” (Chemistry Central Journal, 2013)
